What was measured:
[1] = target: T1, ΔF508-CFTR (Homo sapiens, UniProt P13569, DEL508-508); assay: CFTR cell surface levels using HRP-tagged ΔF508-CFTR expressing CFBE cells, in the presence of a co-corrector; format: cell-based; settings: HRP-tagged ΔF508-CFTR expressing CFBE cells, in the presence of 3 μM co-corrector; for EC50: read-out: EC50
T1 construct: host or cells: CFBE41o-, doxycycline-inducible
How it was run: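 Cells were seeded with 0.5 μg/mL doxycycline and held 68 h at 37 °C. Test compounds plus 3 μM co-corrector (final 0.1% DMSO) were then added for 20 h at 33 °C. Washed cells received HRP substrate, and luminescence was normalized between DMSO and 3 μM co-corrector controls.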

[2] = target: T1, ΔF508-CFTR; assay: CFTR cell surface levels using HRP-tagged ΔF508-CFTR expressing CFBE cells, intrinsic corrector capacity; format: cell-based; settings: HRP-tagged ΔF508-CFTR expressing CFBE cells, intrinsic corrector capacity (no co-corrector), 33° C., 20 hours; for EC50: read-out: EC50
How it was run: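 Here the cells express ΔF508-CFTR with horseradish peroxidase inserted in extracellular loop 4, so only rescued channel at the surface gives luminescent signal. Compounds act on their own, 20 h at the reduced temperature of 33 °C; values are percent activity relative to DMSO and a 3 μM corrector.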

T1 sequence (P13569 with tags, fused parts or gaps DEL508-508): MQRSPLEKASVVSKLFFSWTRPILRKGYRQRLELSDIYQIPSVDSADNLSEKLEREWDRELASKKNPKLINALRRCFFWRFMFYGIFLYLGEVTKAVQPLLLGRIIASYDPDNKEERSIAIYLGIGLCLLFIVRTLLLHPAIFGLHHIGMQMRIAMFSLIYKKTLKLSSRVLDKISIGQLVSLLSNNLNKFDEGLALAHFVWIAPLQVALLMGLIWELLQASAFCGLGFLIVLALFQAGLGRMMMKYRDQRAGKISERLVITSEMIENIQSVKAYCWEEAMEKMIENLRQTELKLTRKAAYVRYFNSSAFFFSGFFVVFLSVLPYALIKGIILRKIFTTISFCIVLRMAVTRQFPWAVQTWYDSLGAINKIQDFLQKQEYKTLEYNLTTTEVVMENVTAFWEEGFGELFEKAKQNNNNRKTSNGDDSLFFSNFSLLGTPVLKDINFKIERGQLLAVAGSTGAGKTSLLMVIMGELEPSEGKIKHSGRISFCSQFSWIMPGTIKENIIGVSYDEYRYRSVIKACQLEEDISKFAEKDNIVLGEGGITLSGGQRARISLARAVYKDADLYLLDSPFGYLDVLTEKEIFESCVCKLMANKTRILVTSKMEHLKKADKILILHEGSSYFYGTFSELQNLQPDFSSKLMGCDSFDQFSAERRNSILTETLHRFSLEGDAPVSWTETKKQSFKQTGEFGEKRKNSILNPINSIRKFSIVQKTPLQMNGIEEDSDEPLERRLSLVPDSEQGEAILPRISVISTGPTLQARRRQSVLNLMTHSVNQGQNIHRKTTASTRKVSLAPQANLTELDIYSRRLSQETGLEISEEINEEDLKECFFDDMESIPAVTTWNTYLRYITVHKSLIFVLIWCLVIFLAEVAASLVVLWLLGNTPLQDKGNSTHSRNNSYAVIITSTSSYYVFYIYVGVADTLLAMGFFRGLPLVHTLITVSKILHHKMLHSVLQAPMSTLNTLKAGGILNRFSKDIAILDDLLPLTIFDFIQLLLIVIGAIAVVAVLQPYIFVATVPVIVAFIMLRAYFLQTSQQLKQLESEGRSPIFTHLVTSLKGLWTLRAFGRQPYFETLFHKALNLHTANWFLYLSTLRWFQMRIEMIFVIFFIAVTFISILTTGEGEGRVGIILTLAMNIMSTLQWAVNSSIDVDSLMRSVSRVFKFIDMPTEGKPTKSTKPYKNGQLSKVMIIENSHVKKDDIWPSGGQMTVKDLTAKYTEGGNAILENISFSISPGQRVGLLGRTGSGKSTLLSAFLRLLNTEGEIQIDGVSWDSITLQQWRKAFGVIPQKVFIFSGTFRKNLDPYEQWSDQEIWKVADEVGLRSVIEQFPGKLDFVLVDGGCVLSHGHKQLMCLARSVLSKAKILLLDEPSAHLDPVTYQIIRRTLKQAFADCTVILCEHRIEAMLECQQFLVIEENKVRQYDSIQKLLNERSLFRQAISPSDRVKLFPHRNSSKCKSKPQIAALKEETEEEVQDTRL

SMILES	% Activation [1] [%]	EC50 [1] [nM]	% Activation [2] [%]	EC50 [2] [nM]
O=C(O)c1cc(N2CCC(C(F)(F)F)C2)c2c(C3CCC3)nn(-c3ccccc3)c2n1 (stereo not drawn) [compound 442, 3-cyclobutyl-1-phenyl-4-[3-(trifluoromethyl)pyrrolidin-1-yl]-1H-pyrazolo[3,4-b]pyridine-6-carboxylic acid]	321.95	655	137.7	1080
O=C(O)c1cc(N2CCC(N3CCCC3)CC2)c2c(C3CCC3)nn(-c3ccccc3)c2n1 [compound 443, 3-cyclobutyl-1-phenyl-4-[4-(pyrrolidin-1-yl)piperidin-1-yl]-1H-pyrazolo[3,4-b]pyridine-6-carboxylic acid]	317.25	1470	146.9	2300
O=C(O)c1cc(N2CCC(F)CC2)c2c(C3CCC3)nn(-c3ccccc3)c2n1 [compound 444, 3-cyclobutyl-4-(4-fluoropiperidin-1-yl)-1-phenyl-1H-pyrazolo[3,4-b]pyridine-6-carboxylic acid]	282.8	543	111.15	1110
O=C(O)c1cc(N2C[C@H](O)[C@@H](O)C2)c2c(C3CCC3)nn(-c3ccccc3)c2n1 [compound 446, 3-cyclobutyl-4-[(3S,4S)-3,4-dihydroxypyrrolidin-1-yl]-1-phenyl-1H-pyrazolo[3,4-b]pyridine-6-carboxylic acid]	171.35	3340	20.695	> 10000
CN(C)CCC1CCN(c2cc(C(=O)O)nc3c2c(C2CCC2)nn3-c2ccccc2)CC1 [compound 447, 3-cyclobutyl-4-{4-[2-(dimethylamino)ethyl]piperidin-1-yl}-1-phenyl-1H-pyrazolo[3,4-b]pyridine-6-carboxylic acid]	415.6	724	243.3	1120
CCN(CC)CCC1CCN(c2cc(C(=O)O)nc3c2c(C2CCC2)nn3-c2ccccc2)CC1 [compound 448, 3-cyclobutyl-4-{4-[2-(diethylamino)ethyl]piperidin-1-yl}-1-phenyl-1H-pyrazolo[3,4-b]pyridine-6-carboxylic acid]	387.15	646	239.2	1080
O=C(O)c1cc(N2CCN(CC3CC3)CC2)c2c(C3CCC3)nn(-c3ccccc3)c2n1 [compound 449, 3-cyclobutyl-4-[4-(cyclopropylmethyl)piperazin-1-yl]-1-phenyl-1H-pyrazolo[3,4-b]pyridine-6-carboxylic acid]	298.55	918	139.3	1350
O=C(O)c1cc(N2CCN(C3CCC3)CC2)c2c(C3CCC3)nn(-c3ccccc3)c2n1 [compound 450, 3-cyclobutyl-4-(4-cyclobutylpiperazin-1-yl)-1-phenyl-1H-pyrazolo[3,4-b]pyridine-6-carboxylic acid]	377.1	456	165.85	1090
CC1(F)CN(c2cc(C(=O)O)nc3c2c(C2CCC2)nn3-c2ccccc2)C1 [compound 451, 3-cyclobutyl-4-(3-fluoro-3-methylazetidin-1-yl)-1-phenyl-1H-pyrazolo[3,4-b]pyridine-6-carboxylic acid]	234.95	874	71.425	1290
O=C(O)c1cc(N2CCC3(CCCC3)CC2)c2c(C3CCC3)nn(-c3ccccc3)c2n1 [compound 452, 4-(8-azaspiro[4.5]decan-8-yl)-3-cyclobutyl-1-phenyl-1H-pyrazolo[3,4-b]pyridine-6-carboxylic acid]	282.3	1110	74.98	1110
O=C(O)c1cc(N2CCC3(CC2)CC(F)(F)CO3)c2c(C3CCC3)nn(-c3ccccc3)c2n1 [compound 453, 3-cyclobutyl-4-(3,3-difluoro-1-oxa-8-azaspiro[4.5]decan-8-yl)-1-phenyl-1H-pyrazolo[3,4-b]pyridine-6-carboxylic acid]	275.35	656	110.68	716
CN1CCC(C2CCN(c3cc(C(=O)O)nc4c3c(C3CCC3)nn4-c3ccccc3)CC2)CC1 [compound 454, 3-cyclobutyl-4-(1′-methyl[4,4′-bipiperidin]-1-yl)-1-phenyl-1H-pyrazolo[3,4-b]pyridine-6-carboxylic acid]	470.3	636	253.5	998
CN(C)C[C@H](F)C1CCN(c2cc(C(=O)O)nc3c2c(C2CCC2)nn3-c2ccccc2)CC1 [compound 455, 3-cyclobutyl-4-{4-[(1R)-2-(dimethylamino)-1-fluoroethyl]piperidin-1-yl}-1-phenyl-1H-pyrazolo[3,4-b]pyridine-6-carboxylic acid]	421.5	452	288.4	1110
O=C(O)c1cc(N2CCC([C@H](F)CO)CC2)c2c(C3CCC3)nn(-c3ccccc3)c2n1 [compound 457, 3-cyclobutyl-4-{4-[(1S)-1-fluoro-2-hydroxyethyl]piperidin-1-yl}-1-phenyl-1H-pyrazolo[3,4-b]pyridine-6-carboxylic acid]	430.85	392	240.3	607
O=C(O)c1cc(N2CCC([C@@H](F)CO)CC2)c2c(C3CCC3)nn(-c3ccccc3)c2n1 [compound 458, 3-cyclobutyl-4-{4-[(1R)-1-fluoro-2-hydroxyethyl]piperidin-1-yl}-1-phenyl-1H-pyrazolo[3,4-b]pyridine-6-carboxylic acid]	399.6	278	216.4	485
COCCOCC1(F)CCN(c2cc(C(=O)O)nc3c2c(C2CCC2)nn3-c2ccccc2)CC1 [compound 459, 3-cyclobutyl-4-{4-fluoro-4-[(2-methoxyethoxy)methyl]piperidin-1-yl}-1-phenyl-1H-pyrazolo[3,4-b]pyridine-6-carboxylic acid]	319.8	380	152.05	653
CCOCC1(F)CCCN(c2cc(C(=O)O)nc3c2c(C2CCC2)nn3-c2ccccc2)C1 (stereo not drawn) [compound 460, 3-cyclobutyl-4-[3-(ethoxymethyl)-3-fluoropiperidin-1-yl]-1-phenyl-1H-pyrazolo[3,4-b]pyridine-6-carboxylic acid]	322.2	328	138.15	642
CCOCC1(F)CCN(c2cc(C(=O)O)nc3c2c(C2CCC2)nn3-c2ccccc2)CC1 [compound 461, 3-cyclobutyl-4-[4-(ethoxymethyl)-4-fluoropiperidin-1-yl]-1-phenyl-1H-pyrazolo[3,4-b]pyridine-6-carboxylic acid]	328.05	343	158.55	818
COCCOCC1(F)CCCN(c2cc(C(=O)O)nc3c2c(C2CCC2)nn3-c2ccccc2)C1 (stereo not drawn) [compound 462, 3-cyclobutyl-4-{3-fluoro-3-[(2-methoxyethoxy)methyl]piperidin-1-yl}-1-phenyl-1H-pyrazolo[3,4-b]pyridine-6-carboxylic acid]	316.85	318	156.2	486
COCC1(F)CCN(c2cc(C(=O)O)nc3c2c(C2CCC2)nn3-c2ccccc2)CC1 [compound 463, 3-cyclobutyl-4-[4-fluoro-4-(methoxymethyl)piperidin-1-yl]-1-phenyl-1H-pyrazolo[3,4-b]pyridine-6-carboxylic acid]	341.85	373	157.75	686
O=C(O)c1cc(N2CC[C@@H](O)[C@H](F)C2)c2c(C3CCC3)nn(-c3ccccc3)c2n1 [compound 464, 3-cyclobutyl-4-[(3R,4R)-3-fluoro-4-hydroxypiperidin-1-yl]-1-phenyl-1H-pyrazolo[3,4-b]pyridine-6-carboxylic acid]	328.25	408	163.6	1140
O=C(O)c1cc(N2CC[C@@H](F)[C@H](O)C2)c2c(C3CCC3)nn(-c3ccccc3)c2n1 [compound 465, 3-cyclobutyl-4-[(3R,4R)-4-fluoro-3-hydroxypiperidin-1-yl]-1-phenyl-1H-pyrazolo[3,4-b]pyridine-6-carboxylic acid]	244.6	703	91.04	1850
O=C(O)c1cc(N2CC(N3CCCCC3)C2)c2c(C3CCC3)nn(-c3ccccc3)c2n1 [compound 466, 3-cyclobutyl-1-phenyl-4-[3-(piperidin-1-yl)azetidin-1-yl]-1H-pyrazolo[3,4-b]pyridine-6-carboxylic acid]	271.1	1290	116.25	2330
CS(=O)(=O)[C@@H]1CCN(c2cc(C(=O)O)nc3c2c(C2CCC2)nn3-c2ccccc2)C1 [compound 467, 3-cyclobutyl-4-[(3R)-3-(methanesulfonyl)pyrrolidin-1-yl]-1-phenyl-1H-pyrazolo[3,4-b]pyridine-6-carboxylic acid]	274.35	3340	97.95	3340
